Measurements: patent US20220354825A1, “PHARMACEUTICAL COMPOSITION FOR PREVENTION OR TREATMENT OF INFLAMMATORY DISEASES COMPRISING NAPHTHOQUINONE DERIVATIVE” (LMITO THERAPEUTICS INC., priority 2019, published 2022)

Columns and labels:
[1] = molecular target: NQO1 (Homo sapiens, UniProt P15559); test: In vitro NQO1 enzyme activity assay (cytochrome C reduction); format: biochemical; settings: NQO1 2 ng
Experimental: In order to evaluate the enzymatic activities of compounds on NQO1, the experiments were performed as follows:
A compound to measure NQO1 enzyme activity was dissolved in DMSO to prepare a 10 mM stock solution, which was then diluted with DMSO to prepare a working solution at a concentration of 250 μM. For an enzyme reaction solution, 50 μL of 1.54 mM cytochrome C solution was added to 900 μL of 50 mM Tris-HCl (pH 7.5) solution containing 0.14% BSA, and then the prepared working solution at 250 μM was added. After adding 20 μL of 100 ng/ml NQO1 protein, […] solution was added so as to adjust the total volume to 1 mL, and then the change of absorbance was measured at 550 nm for 10 minutes. The change of absorbance was measured at 550 nm for 10 minutes using 1 mL cuvette. The reaction rate was observed through the increase in absorbance as cytochrome C was reduced at 550 nm for 10 minutes, to obtain an absorbance value, and the activity for NQO1 was measured as the reduced amount of cytochrome C (nmol reduced cytochrome C/min/μg NQO1 protein).
Absorption coefficient of Cytochrome C: 21.1 (μmol/mL)-1 cm^−1
Equipment=Cary 100 UV-Vis Spectrophotometer

[2] = test system: primary bone marrow-derived macrophages (BMDMs); test: NAD+ measurement in macrophages after LPS/ATP; format: cell-based, C57BL/6 mouse; settings: LPS/ATP + 1, 5, 10 μM compound
Experimental: (§1) The primary bone marrow-derived macrophages (BMDMs) isolated from C57BL/6 mouse were incubated in DMEM medium involving macrophage colony-stimulating factor (M-CSF; R&D Systems, 416-ML) during 3 to 5 days. NAD^+ production and NAD^+/NADH ratio were measured in isolated BMDMs through using NAD/NADH Assay Kit(ab65348) supplied by Abcam company. All assays were performed according to the manufacturer's product manual.
FIGS. 1 to 5 show NAD^+ changes in the macrophage when treated with compounds 6, 16, 17, 22 and 27 respectively (in order from left in the figure: Untreatment, LPS/ATP, LPS/ATP+1 μM compound, LPS/ATP+5 μM compound, and LPS/ATP+10 μM compound).

[3] = test system: primary bone marrow-derived macrophages (BMDMs); test: NAD+/NADH measurement in macrophages after LPS/ATP; format: cell-based, C57BL/6 mouse; settings: LPS/ATP + 1, 5, 10 μM compound
Experimental: as §1, with “ratio was” for “ratio were”
FIGS. 6 to 10 show NAD^+/NADH ratio changes in the macrophage when treated with compounds 6, 16, 17, and 27 respectively (in order from left in the figure: Untreatment, LPS/ATP, LPS/ATP+1 μM compound, LPS/ATP+5 μM compound, and LPS/ATP+10 μM).

[4] = test system: primary bone marrow-derived macrophages (BMDMs); test: Mitochondrial reactive oxygen species measurement (MitoSox, FACS); format: cell-based, C57BL/6 mouse; settings: LPS/ATP + 1, 5, 10 μM compound
Experimental: The primary bone marrow-derived macrophages (BMDMs) isolated from C57BL/6 mouse were incubated in DMEM medium involving macrophage colony-stimulating factor (M-CSF; R&D Systems, 416-ML) during 3 to 5 days. Isolated BMDMs were stained by 1 μM MitoSox (Molecular Probes M36008) for 15 min. After washing the cells into PBS and collecting the cells, mitochondrial reactive oxygen species was measured by FACS.
FIGS. 11 and 12 show mitochondrial reactive oxygen species changes in the macrophage when treated with compounds 6 and 27, respectively (in order from left in the figure: Untreatment, LPS/ATP, LPS/ATP+1 μM compound, LPS/ATP+5 μM compound, and LPS/ATP+10 μM compound).

[5] = test system: primary bone marrow-derived macrophages (BMDMs); test: ATP measurement in LPS-activated macrophages; format: cell-based, C57BL/6 mouse; settings: LPS + 1, 5, 10 μM compound
Experimental: The primary bone marrow-derived macrophages (BMDMs) isolated from C57BL/6 mouse were incubated in DMEM medium involving macrophage colony-stimulating factor (M-CSF; R&D Systems, 416-ML) during 3 to 5 days. ATP content in the cell was measured through using ATP colorimetric/fluorometric kit after activation of macrophages by treatment of 100 ng/mL LPS in DMEM medium including […]. All assays were performed according to the manufacturer's product manual.
FIGS. 13 to 17 show the measurement of ATP amounts in the macrophage when treated with Compounds 6, 16, 17, 22 and 27 respectively (in order from left in the figure: Untreatment, LPS/ATP, LPS/ATP+1 μM compound, LPS/ATP+5 μM compound, and LPS/ATP+10 μM compound).

[6] = test system: primary bone marrow-derived macrophages (BMDMs); test: OCR (oxygen consumption rate) measurement, Seahorse XF24; format: cell-based, C57BL/6 mouse; settings: macrophages after treatment of LPS and ATP
Experimental: The primary bone marrow-derived macrophages (BMDMs) isolated from C57BL/6 mouse were incubated in DMEM medium involving macrophage colony-stimulating factor (M-CSF; R&D Systems, 416-ML) during 3 to 5 days. OCR was measured using Seahorse XF24 Extracellular Flux Analyzer in isolated bone marrow-derived macrophages.

[7] = test system: DSS-induced acute colitis mouse model; test: Efficacy in ulcerative colitis mouse model (DSS-induced acute colitis); format: in vivo, C57BL/6 female mouse; settings: 5% DSS for 6 days
Experimental: DSS-induced acute colitis mouse model was prepared using 6-week-old C57BL/6 female mouse in the following method from Opal S M et al., Jama., 309(11):1154-1162(2013) and Hotchkiss R S et al., Journal of immunology., 176(9):5471-5477(2006).
The clinical score in colitis were measured daily for body weight, rectal bleeding, total bleeding loss, and fecal concentration during colitis induction.
For immunohistochemistry of tissue section, mouse spleen, lung and colon were fixed using 10% formalin and embedded in paraffin. Paraffin sections were cut to a thickness of 4 μm, and H&E(hematoxylin and eosin) staining was performed. The histopathological score was measured in accordance with the criteria described in Osuchowski M F, et al., Journal of Immunology, 177(3):1967-74(2006); and Liu W, et al., Cell Research, 25(6): 691-706(2015).
The sandwich ELISAs and MPO assay were performed according to conventional methods in this field. TNF-α, IL-6, IL-1β, IL-18 ELISA(sandwich ELISAs) were performed using BD OptEIA ELISA Kit and MPO assay was performed using MPO Activity assay kit(ab105136) of Abcam company.
The data obtained from independent experiment (means±SD) was analyzed by using two-tailed Student's t-test. The differences were considered significant in p<0.05. For survival comparison, the results were graphically described and analyzed according to kaplan-Meier survival analysis, that is, the product-limit method, using log-rank(Mantel-Cox) tests (Prism, version 5.0, GraphPad Software).

[8] = colon tissue homogenate, treated during 20 days
[9] = treated during 10 days, vs non-treated mouse

Sequence of NQO1 (P15559 whole entry, species assumed): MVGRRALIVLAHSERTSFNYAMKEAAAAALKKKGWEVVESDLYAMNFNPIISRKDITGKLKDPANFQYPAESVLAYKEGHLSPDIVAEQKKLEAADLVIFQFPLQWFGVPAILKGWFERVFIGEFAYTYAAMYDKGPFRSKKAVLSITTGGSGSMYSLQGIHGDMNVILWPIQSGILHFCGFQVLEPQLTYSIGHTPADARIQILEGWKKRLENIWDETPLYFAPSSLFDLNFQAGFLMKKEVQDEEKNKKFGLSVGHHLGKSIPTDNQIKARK

**Q.** With `COc1nn(-c2ccccc2)c2c1C(=O)C(=O)c1ccccc1-2` [Compound 6] as the molecule, how does the “NQO1 Activity” value ([1]; Compound 0.2 μM) read?
**A.** 3782 nmol of reduced Cytochrome C/min/μg NQO1 Protein

**Q.** And the “NQO1 Activity” value ([1]; Compound 5 μM)?
**A.** 7706 nmol of reduced Cytochrome C/min/μg NQO1 Protein

**Q.** And the “NAD+ production” value [2]?
**A.** increased in dose-dependent manner

**Q.** What about the “NAD+/NADH ratio” value [3] of the same molecule?
**A.** increased in dose-dependent manner

**Q.** What about the “mitochondrial reactive oxygen species amounts” value [4] of the same molecule?
**A.** decreased in dose-dependent manner

**Q.** What about the ATP amounts [5] of the same molecule?
**A.** increased in dose-dependent manner

**Q.** What about the “overall mitochondrial OCR” value [6] of the same molecule?
**A.** increased

**Q.** And the MPO activity [7, 8]?
**A.** decreased

**Q.** What about the “cytokine expressions (TNF-α, IL-6, IL-1β and IL-18, ELISA)” value [7, 8] of the same molecule?
**A.** decreased

**Q.** And the “expressions of sirtuin 1 and sirtuin 7” value [7, 8]?
**A.** significantly increased

**Q.** What about the “histological finding of colon tissue (immunohistochemistry, histological score, H&E)” value ([7]; treated during 7 days, vs non-treated colon tissue) of the same molecule?
**A.** significantly improved than non-treated colon tissue

**Q.** And the “colitis clinic scores (body weight, stool consistency, bleeding combined)” value [7, 9]?
**A.** significantly ameliorated compared with non-treated mouse

**Q.** What about the “degree of body weight loss” value [7, 9] of the same molecule?
**A.** significantly slower than non-treated mouse

**Q.** What about the survival rates ([7]; treated during 20 days, vs non-treated mouse) of the same molecule?
**A.** higher than non-treated mouse
